The subject of one data set is human melanoma A375. Kind of data set: CCK-8 cell survival assay, A375. The class given is cell-based. To be noted: CCK-8, 48 h, read-out: IC50 value of the inhibition on A375. As to the method: (§1) a. […] Reagents • CCK8 reagent kit, purchased from TargetMol China; Annexin V-FITC/PI double staining cell apoptosis detection kit, purchased from Seven Biotech Company. c. Instruments • Multi-function microplate reader FLUOstar Omega, purchased from BMG LABTECH, Germany; • Flow cytometer, purchased from BD Company, United States. d. Experimental Method
(§2) The cells in logarithmic phase with good condition are taken and digested with trypsin, and the prepared culture medium is added to prepare a cell suspension, the cell density being adjusted to 5×10^4 cells/mL. The digested cells are inoculated into a 96-well plate, in which 100 μL of cell suspension is added to each well, and incubated overnight in a cell incubator at 37° C. with 5% CO2. After the cells grow adhered to the wall, the blank control group and the compound groups to be tested with different concentration gradients are set up respectively. […] The optical density value (OD) is measured by using a multifunctional enzyme-linked immunosorbent assay instrument, the wavelength setting to 450 nm. The experiment is repeated for three times, the cell survival rates of different drug concentrations in each group are calculated and counted according to a formula: cell survival rate=(experimental group−blank control group/control group)×100%, and the results are calculated with GraphPad Prism software.
A general note: Formazan colour is commonly taken as a measure of viable cells.

Data set [1] deals with human triple negative breast cancer MDA-MB-231. The experiment in a line: CCK-8 cell survival assay, MDA-MB-231. The class given is cell-based. As to conditions: CCK-8, 48 h, read-out: IC50 value of the inhibition on MDA-MB-231. As to the method: as §1, §2
Data set [2] concerns human lung cancer cell A549. The experiment in a line: CCK-8 cell survival assay, A549. The class given is cell-based. To be noted: CCK-8, 48 h, read-out: IC50 value of the inhibition on A549. As to the method:
as §1, §2

The next data set concerns mouse myeloma SP2/0. Kind of data set: CCK-8 cell survival assay, SP2/0. The class given is cell-based. To be noted: CCK-8, 48 h, read-out: IC50 value of the inhibition on SP2/0. As to the method: as §1, §2
The next data set relates to cancer cell HELA. The experiment in a line: MTT cell inhibition assay, HELA. The data set is classed as cell-based. As to conditions: 48 h.
The subject of a further data set is cancer cell MCF-7. The experiment in a line: MTT cell inhibition assay, MCF-7. The class given is cell-based.
A further data set deals with human normal cell 293T. The experiment in a line: MTT cytotoxicity assay, human normal cell 293T. The class given is cell-based. To be noted: 48 h, read-out: IC50 value of the inhibition on human normal cell 293T. As to the method: Two cancer cell lines HELA and MCF-7 in the logarithmic phase and the human normal cell line 293T are taken and the cells thereof are counted with a cell counting plate, and then the concentration of the cell suspension is adjusted to 10^5 cells/mL. The cells are inoculated into a 96-well plate with 100 μL of cell suspension for each well. After the cell suspension is evenly distributed, and the plate is placed into a CO2 incubator for incubation. The drug to be tested is added after the cells grow uniformly and have spread on all the bottom of the culture dish. DMEM culture solution is used as a negative control group (the drug to be tested is completely dissolved in the culture solution without dissolving it in DMSO), and cisplatin is used as a positive control group. For each drug to be tested and control groups, 100 μL of the drug to be tested is added to each well; and four parallel replicates are set for each concentration. After 48 h cultivation, 10 μL MTT is added for another 4 h cultivation, and the supernatant is discarded. 100 μL analytically pure dimethyl sulfoxide is added, and shaken evenly on a shaking table. After the solution is completely uniform, its absorbance is measured at a wavelength of 490 nm with a microplate reader. The experiment is repeated twice.

A further data set has as its system A375 Human melanoma. Kind of data set: Flow cytometric detection of cell apoptosis (Annexin V-FITC/PI), A375. The data set is classed as cell-based. To be noted: 48 h. As to the method: (§3) The cells that are in logarithmic phase and have good condition are taken, digested with trypsin, the prepared culture medium is added to prepare a cell suspension, and the cell density is adjusted to 5×10^4 cells/mL. The digested cells are inoculated in 6-well plate, in which 2 mL cell suspension is added to each well, and incubated overnight in a cell incubator at 37° C. with 5% CO2. After the cells are adhered to the wall, a blank control group and the group of experimental drug to be tested with different concentration gradients are set respectively. 2 mL drug is added to each well for further cultivation for 48 h, and EDTA-free trypsin is used for cell digestion and the digested cells are collected. For the apoptosis detection, the collected cells are required to be adjusted to the cell density of 1×10^6 cells/mL, put into a 5 mL centrifuge tube and centrifuged at 1000 rpm for 5 min, and then washed with PBS for three times. 100 μL Binding Buffer is added to resuspend the cells, and except for the single-stained control and blank control cells, 5 μL FITC and 5 μL PI are added to each tube, mixed gently, and incubated at room temperature in the dark for 15 min. 400 μL Binding Buffer is added into each well before testing on the machine, and mixed and tested on the machine. • Blank control: drug-induced apoptotic cells—without adding a fluorescent reagent (the voltage of scattered light is adjusted to determine the FSC SSC of the population). • Negative control: normal cells (without drug treatment)—added with all the fluorescent staining reagents of the experiment (at the lower left corner, the voltage of the two fluorescent channels is determined). • Single-stained control: one tube each for FITC and PI, positive control for compensation adjustment: drug-induced apoptotic cells or heat-induced apoptotic cells are added with all fluorescent reagents of the experiment (confirming that there is no problem with reagents, instruments and operations).
(Flow cytometry measures light scatter and fluorescence of single cells or particles in a stream.)

The subject of data set [3] is MDA-MB-231 Human triple negative breast cancer. The experiment in a line: Flow cytometric detection of cell apoptosis (Annexin V-FITC/PI), MDA-MB-231. The class given is cell-based. To be noted: 48 h. As to the method: as §3
In data set [4] the test system is A549 Human lung cancer cell. The experiment in a line: Flow cytometric detection of cell apoptosis (Annexin V-FITC/PI), A549. The class given is cell-based. As to conditions: 48 h. As to the method: as §3
In another data set the test system is SP2/0 Mouse myeloma. The experiment in a line: Flow cytometric detection of cell apoptosis (Annexin V-FITC/PI), SP2/0. The data set is classed as cell-based. To be noted: for Apoptosis in early stage / Apoptosis in late stage: 48 h. The method, then:
as §3

Another data set concerns KM mice. Kind of data set: Mouse toxicity test (acute, intraperitoneal). The data set is classed as in vivo. An excerpt: 12 KM mice with body weight 18 g to 22 g and age of 4 to 6 weeks are taken and fed adaptively for 7 days. All mice may eat freely and be provided with sufficient fresh drinking water. The feeding environment for mice meets the standard of SPF laboratory animal level environmental facility.
The behavioral changes after administration and death within 14 days of the animals are observed.

The mark [5] stands for this setting: KM mice, 40 mg/kg intraperitoneal.

Like-named read-outs stand apart in the source and are kept apart here.

Method for cancer cell HELA: (§4) Two cancer cell lines HELA and MCF-7 in the logarithmic phase and the human normal cell line 293T are taken and the cells thereof are counted with a cell counting plate, and then the concentration of the cell suspension is adjusted to 10^5 cells/mL. The cells are inoculated into a 96-well plate with 100 μL of cell suspension for each well. After the cell suspension is evenly distributed, and the plate is placed into a CO2 incubator for incubation. […] For each drug to be tested and control groups, 100 μL of the drug to be tested is added to each well; and four parallel replicates are set for each concentration. After 48 h cultivation, 10 μL MTT is added for another 4 h cultivation, and the supernatant is discarded. 100 μL analytically pure dimethyl sulfoxide is added, and shaken evenly on a shaking table. After the solution is completely uniform, its absorbance is measured at a wavelength of 490 nm with a microplate reader. The experiment is repeated twice.
Method for cancer cell MCF-7: as §4

Consider `N.N.[Cl][Pt][Cl]` [Cisplatin, cisplatin, reference compound], for which the IC50 with human melanoma A375 amounted to 16.4 ± 0.36 µM; in data set [1], 23.4 ± 1.75 µM; in data set [2], 35.8 ± 1.89 µM; in the data set on mouse myeloma SP2/0, 17.4 ± 1.24 µM; in the data set on cancer cell HELA, 13.2 µM; in the data set with cancer cell MCF-7 (48 h) it was 14.2 µM. The IC50 with human normal cell 293T was determined as 17.3 µM.

With `COc1ccc2c(c1)C13CCNC1(C)C1(C)c4[nH]c5ccc(OC)cc5c4CCN1C3N2` (stereo not shown) [Compound 14], the IC50 in the data set on human melanoma A375 (Homo sapiens, A-375) amounted to 17.1 ± 1.45 µM; in [1] (Homo sapiens, MDA-MB-231) it was 26 ± 1.43 µM; in [2] (Homo sapiens, A549), 30.8 ± 1.72 µM; in the data set with mouse myeloma SP2/0 (Mus musculus) it was 15.1 ± 2.91 µM. Further, the “Apoptosis in early stage” value with A375 Human melanoma (A375, 10 μM) is on record as 27.41 ± 1.87%; with A375 Human melanoma (A375, 20 μM), 34.09 ± 3.2%; in data set [3] (MDA-MB-231, 15 μM), 9.21 ± 1.14%; in [3] (MDA-MB-231, 30 μM), 17.70 ± 3.31%; in data set [3] (MDA-MB-231, 45 μM), 20.83 ± 2.79%; in [4] (A549, 10 μM), 4.12 ± 1.73%. The “Apoptosis in early stage” value in data set [4] (A549, 30 μM) came to 16.23 ± 0.90%; in data set [4] (A549, 60 μM), 41.28 ± 5.36%; in the data set on SP2/0 Mouse myeloma (SP2/0, 10 μM) it was 13.15 ± 0.57%; with SP2/0 Mouse myeloma (SP2/0, 20 μM), 35.97 ± 3.37%; in the data set on SP2/0 Mouse myeloma (SP2/0, 30 μM), 58.56 ± 1.26%. Moreover, the “Apoptosis in late stage” value in the data set on A375 Human melanoma (A375, 10 μM) was found to be 10.03 ± 1.87%; in the data set with A375 Human melanoma (A375, 20 μM) it was 13.17 ± 2.30%; in [3] (MDA-MB-231, 15 μM), 13.41 ± 1.24%; in [3] (MDA-MB-231, 30 μM) it was 16.33 ± 0.72%; in data set [3] (MDA-MB-231, 45 μM), 23.66 ± 1.70%; in data set [4] (A549, 10 μM), 9.70 ± 1.18%. The “Apoptosis in late stage” value in data set [4] (A549, 30 μM) is reported as 16.08 ± 0.62%; in data set [4] (A549, 60 μM), 27.32 ± 1.22%; with SP2/0 Mouse myeloma (SP2/0, 10 μM) it was 13.44 ± 1.50%; in the data set on SP2/0 Mouse myeloma (SP2/0, 20 μM) it was 26.65 ± 1.64%; with SP2/0 Mouse myeloma (SP2/0, 30 μM), 39.36 ± 0.87%. Further, in the data set with SP2/0 Mouse myeloma (SP2/0, 30 μM), the “total apoptosis rate at early and late stages” value is 97%. Moreover, the “behavioral changes after administration” value in the data set on KM mice (KM mice, 20 mg/kg intraperitoneal) is “no abnormalities”. In addition, the “behavior and spirit of the animals” value in the data set with KM mice (setting [5]) is recorded as “normal”. The “death within 14 days” value in the data set on KM mice (setting [5]) is reported as “no death occurs”; in the data set on KM mice (KM mice, 60 mg/kg intraperitoneal) it was “one animal dies on the sixth day”; in the data set on KM mice (KM mice, 80 mg/kg intraperitoneal), “two animals die on the second day”. For the same compound, in the data set on KM mice (KM mice, intraperitoneal, single injection, 14 days observation), the lethal dose result is “about 60 mg/kg”. Besides, in the data set with KM mice (mouse, in vivo, ip, 20 mg/kg), the “body weight / weight gain” value is “not significantly different”. For the same compound, the “weight gain compared with the negative control group” value in the data set on KM mice (mouse, in vivo, ip, 40 mg/kg) is listed as “slower”.

Regarding `Cc1ccc2c(c1)C13CCNC1(C)C1(C)c4[nH]c5ccc(C)cc5c4CCN1C3N2` (stereo not shown) [Compound 15], the IC50 worked out at 23.6 µM with cancer cell HELA (Homo sapiens, HeLa); 29.8 µM in the data set on cancer cell MCF-7 (Homo sapiens, MCF7, 48 h); 134 µM with human normal cell 293T (Homo sapiens, HEK-293T).

As to `Cc1ccc2c(c1)C13CCNC1C1(C)c4[nH]c5ccc(C)cc5c4CCN1C3N2` (stereo not shown) [Compound 20], in the data set on cancer cell HELA (Homo sapiens, HeLa), the IC50 was determined as 40.1 µM.

Values taken from US20240140950A1, “NITROGEN-CONTAINING POLYCYCLIC AROMATIC COMPOUND, and PREPARATION METHOD AND APPLICATION THEREOF” (priority 2021, published 2024).
